We go through 36 compounds from patent US10988477B2 (Merck Patent GmbH, priority 2018, dated 2021).

Sequence of GCN2 kinase (Q9P2K8 whole entry): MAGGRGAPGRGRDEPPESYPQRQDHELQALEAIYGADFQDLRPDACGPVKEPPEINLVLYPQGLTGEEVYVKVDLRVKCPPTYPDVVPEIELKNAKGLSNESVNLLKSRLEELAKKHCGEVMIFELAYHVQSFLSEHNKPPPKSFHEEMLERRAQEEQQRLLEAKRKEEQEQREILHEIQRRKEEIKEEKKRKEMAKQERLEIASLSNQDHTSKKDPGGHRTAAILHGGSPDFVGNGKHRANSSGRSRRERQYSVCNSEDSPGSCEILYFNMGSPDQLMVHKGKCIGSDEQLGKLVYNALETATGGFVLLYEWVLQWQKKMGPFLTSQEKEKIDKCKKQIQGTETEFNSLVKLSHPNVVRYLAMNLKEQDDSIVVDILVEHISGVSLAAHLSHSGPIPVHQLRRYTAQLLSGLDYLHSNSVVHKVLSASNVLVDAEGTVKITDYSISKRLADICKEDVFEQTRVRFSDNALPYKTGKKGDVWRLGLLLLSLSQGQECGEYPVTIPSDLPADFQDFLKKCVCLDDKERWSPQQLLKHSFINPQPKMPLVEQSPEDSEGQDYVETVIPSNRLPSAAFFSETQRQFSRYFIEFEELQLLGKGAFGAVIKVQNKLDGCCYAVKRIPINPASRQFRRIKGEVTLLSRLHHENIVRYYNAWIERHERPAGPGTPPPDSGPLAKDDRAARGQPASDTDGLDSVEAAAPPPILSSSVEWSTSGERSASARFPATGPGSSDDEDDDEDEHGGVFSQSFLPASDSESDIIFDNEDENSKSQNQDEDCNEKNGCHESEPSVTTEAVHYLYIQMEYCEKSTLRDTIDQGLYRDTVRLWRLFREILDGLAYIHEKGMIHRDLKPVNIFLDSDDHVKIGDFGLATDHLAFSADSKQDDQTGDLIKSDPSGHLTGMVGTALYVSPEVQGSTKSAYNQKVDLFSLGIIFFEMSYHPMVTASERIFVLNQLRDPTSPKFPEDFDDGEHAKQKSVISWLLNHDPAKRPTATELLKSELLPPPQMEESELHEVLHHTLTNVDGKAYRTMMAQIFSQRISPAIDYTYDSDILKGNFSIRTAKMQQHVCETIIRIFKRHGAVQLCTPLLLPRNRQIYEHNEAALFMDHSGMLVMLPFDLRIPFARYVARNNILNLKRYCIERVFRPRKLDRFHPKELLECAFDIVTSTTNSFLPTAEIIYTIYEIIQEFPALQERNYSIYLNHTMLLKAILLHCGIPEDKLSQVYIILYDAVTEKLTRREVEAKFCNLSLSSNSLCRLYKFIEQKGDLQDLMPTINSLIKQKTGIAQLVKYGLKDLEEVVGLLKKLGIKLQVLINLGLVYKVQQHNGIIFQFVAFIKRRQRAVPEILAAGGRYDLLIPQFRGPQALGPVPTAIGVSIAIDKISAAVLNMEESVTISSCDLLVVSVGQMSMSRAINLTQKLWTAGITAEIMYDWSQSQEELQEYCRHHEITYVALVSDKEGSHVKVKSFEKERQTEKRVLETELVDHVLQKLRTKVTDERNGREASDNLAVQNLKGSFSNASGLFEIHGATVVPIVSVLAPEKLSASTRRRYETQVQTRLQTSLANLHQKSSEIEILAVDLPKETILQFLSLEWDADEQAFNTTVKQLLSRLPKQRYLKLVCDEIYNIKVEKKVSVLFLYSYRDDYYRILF

One assay concerns the target GCN2 kinase (Homo sapiens, UniProt Q9P2K8). The assay can be described thus: GCN2 enzyme inhibition assay (Transcreener ADP2 fluorescence polarization). The settings on record: compounds of Formula II; 280 μM ATP, 4 nM GCN2 kinase. The format is biochemical. In outline: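 Inhibition of 4 nM GCN2 was measured with compound up to 8 μM final, ATP 280 μM and (RS)7 peptide 200 μM over a 1 h, 25 °C reaction. ADP FP readout; IC50 and Ki(app) calculated from percent inhibition.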
On the technique in general: Polarisation of emitted light reports the rotation of a fluorescent probe.
In general, Ki refers to the equilibrium dissociation constant of an inhibitor or competing ligand from its target. The compound `CC(C)C(C)(O)C1CCCN(c2cc(-c3cnc4ccc(C(F)F)nn34)ncn2)C1` (stereo not drawn) [II-621, 2-(1-(6-(6-(Difluoromethyl)imidazo[1,2-b]pyridazin-3-yl)pyrimidin-4-yl)piperidin-3-yl)-3-methylbutan-2-ol] showed a Ki of 10 to 1000 nM.

As to `CC(C)C(C)(O)C1CCCN(c2cc(-c3cnc4ccc(C(F)F)nn34)ncn2)C1` (stereo not drawn) [II-622, 2-(1-(6-(6-(Difluoromethyl)imidazo[1,2-b]pyridazin-3-yl)pyrimidin-4-yl)piperidin-3-yl)-3-methylbutan-2-ol], the Ki was 10 to 1000 nM.

The compound `CC1CN(c2cc(-c3cnc4ccc(C(F)F)nn34)ncn2)CC(CO)C1(F)F` (stereo not drawn) [II-623, (1-(6-(6-(Difluoromethyl)imidazo[1,2-b]pyridazin-3-yl)pyrimidin-4-yl)-4,4-difluoro-5-methylpiperidin-3-yl)methanol] yielded a Ki of less than 10 nM.

With `CC1CN(c2cc(-c3cnc4ccc(C(F)F)nn34)ncn2)CC(CO)C1(F)F` (stereo not drawn) [II-624, (1-(6-(6-(Difluoromethyl)imidazo[1,2-b]pyridazin-3-yl)pyrimidin-4-yl)-4,4-difluoro-5-methylpiperidin-3-yl)methanol], the inhibitory constant (Ki) fell in the range of 10 to 1000 nM.

On to `CCS(=O)(CC)=NC1CC(C)CN(c2cc(-c3cnc4ccc(C(F)F)nn34)ncn2)C1` (stereo not drawn) [II-627, ((1-(6-(6-(Difluoromethyl)imidazo[1,2-b]pyridazin-3-yl)pyrimidin-4-yl)-5-methylpiperidin-3-yl)imino)diethyl-λ^6-sulfanone], for which the Ki fell in the range of 10 to 1000 nM.

`OC1CCCC2C1NCCN2c1cc(-c2cnc3ccc(C(F)F)nn23)ncn1` (stereo not drawn) [II-628, 1-[6-[6-(Difluoromethyl)imidazo[1,2-b]pyridazin-3-yl]pyrimidin-4-yl]-3,4,4a,5,6,7,8,8a-octahydro-2H-quinoxalin-5-ol] yielded an inhibitory constant (Ki) of 10 to 1000 nM.

In turn, `CC1CCN(c2cc(-c3cnc4ccc(C(F)F)nn34)ncn2)CC1N=S(C)(C)=O` (stereo not drawn) [II-629, ((1-(6-(6-(Difluoromethyl)imidazo[1,2-b]pyridazin-3-yl)pyrimidin-4-yl)-4-methylpiperidin-3-yl)imino)dimethyl-λ^6-sulfanone] gave a Ki of 10 to 1000 nM.

Turning to `CC1CC(N=S(C)(=O)C2CC2)CN(c2cc(-c3cnc4ccc(C(F)F)nn34)ncn2)C1` (stereo not drawn) [II-634, Cyclopropyl((1-(6-(6-(difluoromethyl)imidazo[1,2-b]pyridazin-3-yl)pyrimidin-4-yl)-5-methylpiperidin-3-yl)imino)(methyl)-λ^6-sulfanone], the Ki lay in the range of 10 to 1000 nM.

The compound `CCS(C)(=O)=NC1CC(C)CN(c2cc(-c3cnc4ccc(C(F)F)nn34)ncn2)C1` (stereo not drawn) [II-635, ((1-(6-(6-(Difluoromethyl)imidazo[1,2-b]pyridazin-3-yl)pyrimidin-4-yl)-5-methylpiperidin-3-yl)imino)(ethyl)(methyl)-λ^6-sulfanone] registered a Ki of 10 to 1000 nM.

In turn, `CCC1CC(N=S(C)(C)=O)CN(c2cc(-c3cnc4ccc(C(F)F)nn34)ncn2)C1` (stereo not drawn) [II-648, ((1-(6-(6-(Difluoromethyl)imidazo[1,2-b]pyridazin-3-yl)pyrimidin-4-yl)-5-ethylpiperidin-3-yl)imino)dimethyl-λ^6-sulfanone] yielded a Ki of less than 10 nM.

The compound `CC1CC(N=S2(=O)CCCC2)CN(c2cc(-c3cnc4ccc(C(F)F)nn34)ncn2)C1` (stereo not drawn) [II-649, 1-((1-(6-(6-(Difluoromethyl)imidazo[1,2-b]pyridazin-3-yl)pyrimidin-4-yl)-5-methylpiperidin-3-yl)imino)tetrahydro-1H-1-λ^6-thiophene 1-oxide] showed an inhibition constant (Ki) of 10 to 1000 nM.

In the case of `CS(C)(=O)=NC1CC(C(F)(F)F)CN(c2cc(-c3cnc4ccc(C(F)F)nn34)ncn2)C1` (stereo not drawn) [II-654, ((1-(6-(6-(Difluoromethyl)imidazo[1,2-b]pyridazin-3-yl)pyrimidin-4-yl)-5-(trifluoromethyl)piperidin-3-yl)imino)dimethyl-λ^6-sulfanone], the Ki is 10 to 1000 nM.

`CC1CC(N=S(C)(C)=O)CN(c2cc(-c3cnc4ccc(C(F)F)nn34)ccn2)C1` (stereo not drawn) [II-691, ((1-(4-(6-(Difluoromethyl)imidazo[1,2-b]pyridazin-3-yl)pyridin-2-yl)-5-methylpiperidin-3-yl)imino)dimethyl-λ^6-sulfanone] came in with a Ki of 10 to 1000 nM.

`CS(C)(=O)=NC1CC(C(F)(F)F)CN(c2cc(-c3cnc4ccc(C(F)F)nn34)ncn2)C1` (stereo not drawn) [II-694, ((1-(6-(6-(Difluoromethyl)imidazo[1,2-b]pyridazin-3-yl)pyrimidin-4-yl)-5-(trifluoromethyl)piperidin-3-yl)imino)dimethyl-λ^6-sulfanone] displayed a Ki of 10 to 1000 nM.

`CC1CCC(N=S(C)(C)=O)CN1c1cc(-c2cnc3ccc(C(F)F)nn23)ncn1` (stereo not drawn) [II-697, [1-[6-[6-(Difluoromethyl)imidazo[1,2-b]pyridazin-3-yl]pyrimidin-4-yl]-6-methyl-3-piperidyl]imino-dimethyl-λ^6-sulfanone] gave a Ki greater than 1000 nM.

The compound `CC1CC(N=S(C)(C)=O)CN(c2cc(-c3cnc4ccc(C#N)nn34)ncn2)C1` (stereo not drawn) [II-702, 3-(6-(3-((Dimethyl(oxo)-λ^6-sulfanylidene)amino)-5-methylpiperidin-1-yl)pyrimidin-4-yl)imidazo[1,2-b]pyridazine-6-carbonitrile] had a Ki of 10 to 1000 nM.

As for `CC1CC(N=S(C)(C)=O)CN(c2cc(-c3cnc4ccc(C#N)nn34)ncn2)C1` (stereo not drawn) [II-703, 3-(6-(3-((Dimethyl(oxo)-λ^6-sulfanylidene)amino)-5-methylpiperidin-1-yl)pyrimidin-4-yl)imidazo[1,2-b]pyridazine-6-carbonitrile], the inhibition constant Ki is less than 10 nM.

As to `FC(F)(F)c1ccc2ncc(-c3cc(-c4cnn(C5CCOCC5)c4)ncn3)n2n1` [II-708, 3-[6-(1-Tetrahydropyran-4-ylpyrazol-4-yl)pyrimidin-4-yl]-6-(trifluoromethyl)imidazo[1,2-b]pyridazine], the inhibitory constant (Ki) was greater than 1000 nM.

`CC1CC(P(C)(C)=O)CN(c2cc(-c3cnc4ccc(C(F)(F)F)nn34)ncn2)C1` (stereo not drawn) [II-712, 3-[6-(3-Dimethylphosphoryl-5-methyl-1-piperidyl)pyrimidin-4-yl]-6-(trifluoromethyl)imidazo[1,2-b]pyridazine] showed a Ki greater than 1000 nM.

Consider `CC1CC(P(C)(C)=O)CN(c2cc(-c3cnc4ccc(C(F)(F)F)nn34)ncn2)C1` (stereo not drawn) [II-713, 3-[6-(3-Dimethylphosphoryl-5-methyl-1-piperidyl)pyrimidin-4-yl]-6-(trifluoromethyl)imidazo[1,2-b]pyridazine], for which the inhibition constant Ki fell in the range of 10 to 1000 nM.

`CC(=O)N1CCN(c2cc(-c3cnc4ccc(C(=O)O)nn34)ccn2)CC1` [II-734, 3-(2-(4-acetylpiperazin-1-yl)pyridin-4-yl)imidazo[1,2-b]pyridazine-6-carboxylic acid]: the inhibitory constant (Ki) was greater than 1000 nM.

The compound `Cc1noc([C@@H]2CN(c3cc(-c4cnc5ccc(C(F)(F)F)nn45)ccn3)C[C@@H](C)O2)n1` [II-742] returned an inhibition constant Ki of 10 to 1000 nM.

`C[C@H]1CN(c2cc(-c3cnc4ccc(C(F)(F)F)nn34)ccn2)C[C@@H](c2nc(C3CC3)no2)O1` [II-743]: the Ki lay within 10 to 1000 nM.

For `Cc1noc([C@H]2CN(c3cc(-c4cnc5ccc(C(F)(F)F)nn45)ccn3)C[C@@H](C)O2)n1` [II-744], the inhibition constant (Ki) is 10 to 1000 nM.

`Cc1noc([C@@H]2CN(c3cc(-c4cnc5ccc(C(F)(F)F)nn45)ccn3)C[C@H](C)O2)n1` [II-745] had an inhibitory constant (Ki) of 10 to 1000 nM.

With `FC(F)(F)c1ccc2ncc(-c3ccnc(N4CCCC(c5ncc[nH]5)C4)c3)n2n1` (stereo not drawn) [II-746], the inhibition constant (Ki) was 10 to 1000 nM.

In the case of `Cc1nnc([C@@H]2CN(c3cc(-c4cnc5ccc(C(F)(F)F)nn45)ccn3)C[C@H](C)O2)o1` [II-747], the Ki lay in the range of 10 to 1000 nM.

As to `Cc1noc([C@@H]2CN(c3cc(-c4cnc5ccc(C(F)F)nn45)ccn3)C[C@H](C)O2)n1` [II-748], the inhibitory constant (Ki) fell in the range of 10 to 1000 nM.

`FC(F)c1ccc2ncc(-c3ccnc(N4CCCC(c5c[nH]cn5)C4)c3)n2n1` (stereo not drawn) [II-749] registered a Ki of 10 to 1000 nM.

Regarding `FC(F)c1ccc2ncc(-c3ccnc(N4CCCC(c5cn[nH]c5)C4)c3)n2n1` (stereo not drawn) [II-750], the Ki was less than 10 nM.

As usually defined, the IC50 is the concentration that inhibits the measured activity by half. A higher IC50 goes with lower potency. The compound `C[C@H]1[C@H](CNS(C)(=O)=O)CCCN1c1cc(-c2cnc3ccc(C(F)F)nn23)ncn1` [II-756, N-(((2S,3S)-1-(6-(6-(difluoromethyl)imidazo[1,2-b]pyridazin-3-yl)pyrimidin-4-yl)-2-methylpiperidin-3-yl)methyl)methanesulfonamide] had a concentration for half-maximal inhibition (IC50) greater than 1000 nM.

With `Cc1nn(C)cc1[C@H]1CN(c2cc(-c3cnc4ccc(C(F)(F)F)nn34)ncn2)C[C@H](C)O1` [II-758, (2S,6S)-2-(1,3-dimethyl-1H-pyrazol-4-yl)-6-methyl-4-(6-(6-(trifluoromethyl)imidazo[1,2-b]pyridazin-3-yl)pyrimidin-4-yl)morpholine], the IC50 is greater than 1000 nM.

`C[C@@H]1C[C@H](N=S(C)(C)=O)CN(c2cc(-c3cnc4ccc(N5CC(F)C5)nn34)ncn2)C1` [II-764, (((3S,5R)-1-(6-(6-(3-fluoroazetidin-1-yl)imidazo[1,2-b]pyridazin-3-yl)pyrimidin-4-yl)-5-methylpiperidin-3-yl)imino)dimethyl-16-sulfanone] came in with a 50% inhibitory concentration (IC50) of 10 to 1000 nM.

The same assay, now with this note: compounds of Formula III; 280 μM ATP, 4 nM GCN2 kinase.
In the case of `CC1C(CNS(C)(=O)=O)C(F)(F)C(C)CN1c1cc(-c2cnn3ccc(C(F)F)nc23)ncn1` (stereo not drawn) [III-13, N-[[1-[6-[5-(Difluoromethyl)pyrazolo[1,5-a]pyrimidin-3-yl]pyrimidin-4-yl]-4,4-difluoro-2,5-dimethyl-3-piperidyl]methyl]methanesulfonamide], the Ki is less than 10 nM.

Regarding `CC1CC(N=S(C)(C)=O)CN(c2cc(-c3cnn4ccc(C(F)F)nc34)ncn2)C1` (stereo not drawn) [III-14, [1-[6-[5-(Difluoromethyl)pyrazolo[1,5-a]pyrimidin-3-yl]pyrimidin-4-yl]-5-methyl-3-piperidyl]imino-dimethyl-oxo-6-sulfane], the Ki fell in the range of 10 to 1000 nM.

`c1ccc(-c2cc(-c3cnn4cccnc34)ccn2)cc1` [III-15, 3-(2-phenylpyridin-4-yl)pyrazolo[1,5-a]pyrimidine]: the Ki was greater than 1000 nM.
